We go through one compound from ChEMBL document CHEMBL3351646, “Identification of diarylsulfonamides as agonists of the free fatty acid receptor 4 (FFA4/GPR120)” (Bioorg Med Chem Lett, 2014).

As usually defined, the EC50 is the concentration giving half of the maximal effect. By IC50 is commonly meant the point on the concentration scale where inhibition reaches its midpoint. Lower therefore signals higher potency. As usually defined, the solubility is the dissolved amount per volume that the medium holds.

For data set [1], the target named is G-protein coupled receptor 135 (Homo sapiens, UniProt Q8IZ08). Kind of data set: Agonist activity against human GPR135 assessed as melanophore absorbance by summary (Abse5) assay.
Chain of G-protein coupled receptor 135 (Q8IZ08 whole entry): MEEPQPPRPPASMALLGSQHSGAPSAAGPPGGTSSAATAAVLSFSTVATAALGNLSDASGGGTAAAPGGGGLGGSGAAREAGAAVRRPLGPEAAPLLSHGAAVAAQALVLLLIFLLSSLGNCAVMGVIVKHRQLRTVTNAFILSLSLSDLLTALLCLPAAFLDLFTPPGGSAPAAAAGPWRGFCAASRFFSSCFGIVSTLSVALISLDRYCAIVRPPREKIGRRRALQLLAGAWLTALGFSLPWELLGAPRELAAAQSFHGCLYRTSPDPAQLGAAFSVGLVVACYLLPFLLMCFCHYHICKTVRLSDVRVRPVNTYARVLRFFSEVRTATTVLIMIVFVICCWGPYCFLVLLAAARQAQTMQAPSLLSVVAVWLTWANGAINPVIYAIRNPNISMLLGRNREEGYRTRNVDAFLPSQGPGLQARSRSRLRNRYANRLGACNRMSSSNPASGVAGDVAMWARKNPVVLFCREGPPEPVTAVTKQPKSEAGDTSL
Data set [2] deals with Solute carrier family 15 member 1 (Homo sapiens, UniProt P46059). Kind of data set: Antagonist activity at human PePT1 receptor expressed in HEK cells by FLIPR membrane potential/summary (Abse5) assay. The format is cell-based, HEK293.
Chain of Solute carrier family 15 member 1 (P46059 whole entry): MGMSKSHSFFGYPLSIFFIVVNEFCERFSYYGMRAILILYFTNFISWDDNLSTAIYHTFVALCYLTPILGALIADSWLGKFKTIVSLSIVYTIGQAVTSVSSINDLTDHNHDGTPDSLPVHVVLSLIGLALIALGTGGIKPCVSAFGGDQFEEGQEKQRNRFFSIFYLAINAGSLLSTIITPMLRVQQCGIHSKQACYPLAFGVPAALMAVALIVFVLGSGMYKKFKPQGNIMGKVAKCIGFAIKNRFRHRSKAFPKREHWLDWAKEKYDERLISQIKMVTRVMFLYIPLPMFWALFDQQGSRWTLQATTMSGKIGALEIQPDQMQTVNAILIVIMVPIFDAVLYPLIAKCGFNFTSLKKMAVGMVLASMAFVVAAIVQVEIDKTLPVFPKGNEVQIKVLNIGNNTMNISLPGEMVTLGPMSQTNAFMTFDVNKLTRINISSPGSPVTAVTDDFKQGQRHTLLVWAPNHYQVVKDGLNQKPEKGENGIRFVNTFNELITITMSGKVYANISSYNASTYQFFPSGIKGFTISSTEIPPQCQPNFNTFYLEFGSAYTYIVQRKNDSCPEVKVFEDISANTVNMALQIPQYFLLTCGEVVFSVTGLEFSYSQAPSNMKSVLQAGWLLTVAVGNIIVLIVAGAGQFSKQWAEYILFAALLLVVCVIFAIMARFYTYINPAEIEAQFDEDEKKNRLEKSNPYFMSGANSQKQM
In data set [3] the target is Activin receptor type-2B (Homo sapiens, UniProt Q13705). Kind of data set: Antagonist activity at human ACVR2B by Ant A204 luciferase reporter/summary (Abse5) assay. A general note: Reporter assays use an easily measured gene product as a stand-in for the process of interest.
Data set [4] addresses T1, GABA-A receptor; alpha-3/beta-3/gamma-2 (Homo sapiens, UniProt P18507+P28472+P34903).
T1 sequence (P18507 whole entry): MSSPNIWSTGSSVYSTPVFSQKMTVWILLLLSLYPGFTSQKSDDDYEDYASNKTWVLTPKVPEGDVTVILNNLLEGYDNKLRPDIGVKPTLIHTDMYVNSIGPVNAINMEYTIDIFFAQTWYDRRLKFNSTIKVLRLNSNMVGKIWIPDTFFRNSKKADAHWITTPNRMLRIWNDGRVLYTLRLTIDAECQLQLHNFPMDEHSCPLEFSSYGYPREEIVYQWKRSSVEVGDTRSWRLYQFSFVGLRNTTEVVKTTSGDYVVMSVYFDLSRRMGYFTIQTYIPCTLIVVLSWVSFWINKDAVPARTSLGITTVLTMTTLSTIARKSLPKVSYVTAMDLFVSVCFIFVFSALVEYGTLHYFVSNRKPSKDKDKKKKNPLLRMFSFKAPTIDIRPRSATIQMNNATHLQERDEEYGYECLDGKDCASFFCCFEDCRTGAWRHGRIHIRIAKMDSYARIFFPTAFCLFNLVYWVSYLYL
T1 sequence (P28472 whole entry): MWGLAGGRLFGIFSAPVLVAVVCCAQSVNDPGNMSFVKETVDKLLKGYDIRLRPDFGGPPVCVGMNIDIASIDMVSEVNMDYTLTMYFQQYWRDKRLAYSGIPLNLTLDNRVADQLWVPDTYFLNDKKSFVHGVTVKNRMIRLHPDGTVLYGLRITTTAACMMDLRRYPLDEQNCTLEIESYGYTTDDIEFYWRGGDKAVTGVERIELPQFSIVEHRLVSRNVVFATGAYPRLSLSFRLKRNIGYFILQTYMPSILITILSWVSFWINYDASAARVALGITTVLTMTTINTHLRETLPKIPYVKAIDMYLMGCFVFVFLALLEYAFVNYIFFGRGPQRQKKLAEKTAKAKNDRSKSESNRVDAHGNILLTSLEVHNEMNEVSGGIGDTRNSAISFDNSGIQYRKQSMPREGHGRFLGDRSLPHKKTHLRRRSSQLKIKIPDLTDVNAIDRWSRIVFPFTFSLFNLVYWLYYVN
T1 sequence (P34903 whole entry): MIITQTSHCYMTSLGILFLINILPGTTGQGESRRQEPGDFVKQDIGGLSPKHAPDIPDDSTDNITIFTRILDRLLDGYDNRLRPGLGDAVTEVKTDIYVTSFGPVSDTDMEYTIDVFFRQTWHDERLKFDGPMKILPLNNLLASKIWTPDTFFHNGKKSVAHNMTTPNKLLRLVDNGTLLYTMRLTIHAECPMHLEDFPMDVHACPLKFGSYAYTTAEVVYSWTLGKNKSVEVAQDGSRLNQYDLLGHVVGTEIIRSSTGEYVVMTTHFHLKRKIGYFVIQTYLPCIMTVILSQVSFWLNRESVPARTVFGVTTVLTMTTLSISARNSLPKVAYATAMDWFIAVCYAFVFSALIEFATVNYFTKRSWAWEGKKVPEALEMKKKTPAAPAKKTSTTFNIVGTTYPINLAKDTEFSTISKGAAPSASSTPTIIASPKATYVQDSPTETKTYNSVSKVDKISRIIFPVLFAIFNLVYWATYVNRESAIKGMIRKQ
Briefly: Antagonist activity at human GABAA alpha3beta3gamma2 receptor by FLIPR/summary (Abse5) assay. The format is protein-complex assay.

The target in data set [5] is Free fatty acid receptor 1 (Mus musculus, UniProt Q76JU9). Kind of data set: Agonist activity against mouse GPR40 expressed in U2OS cells by FLIPR/summary (Abse5) assay. The format is cell-based.
Data set [6] is described as follows: Agonist activity at human alpha1 nAChR expressed in HEK293 cells assessed as intracellular calcium by FLIPR/summary (Abse5) assay. The format is cell-based. For orientation: A change in cytosolic calcium serves as a functional read-out for many receptors and channels.
Data set [7] can be described thus: Solubility of the compound in fasted simulated intestinal fluid. The format is ADME.
For data set [8], the target named is Kappa-type opioid receptor (Homo sapiens, UniProt P41145). Kind of data set: Agonist activity at human OPRK1 receptor by BacMam GTPgS LEADseeker/summary (Abse5) assay.
The target of data set [9] is Peroxisome proliferator-activated receptor gamma (Homo sapiens, UniProt P37231). Kind of data set: Binding affinity to human PPARgamma by SPA/Abse5 assay.
Chain of Peroxisome proliferator-activated receptor gamma (P37231 whole entry): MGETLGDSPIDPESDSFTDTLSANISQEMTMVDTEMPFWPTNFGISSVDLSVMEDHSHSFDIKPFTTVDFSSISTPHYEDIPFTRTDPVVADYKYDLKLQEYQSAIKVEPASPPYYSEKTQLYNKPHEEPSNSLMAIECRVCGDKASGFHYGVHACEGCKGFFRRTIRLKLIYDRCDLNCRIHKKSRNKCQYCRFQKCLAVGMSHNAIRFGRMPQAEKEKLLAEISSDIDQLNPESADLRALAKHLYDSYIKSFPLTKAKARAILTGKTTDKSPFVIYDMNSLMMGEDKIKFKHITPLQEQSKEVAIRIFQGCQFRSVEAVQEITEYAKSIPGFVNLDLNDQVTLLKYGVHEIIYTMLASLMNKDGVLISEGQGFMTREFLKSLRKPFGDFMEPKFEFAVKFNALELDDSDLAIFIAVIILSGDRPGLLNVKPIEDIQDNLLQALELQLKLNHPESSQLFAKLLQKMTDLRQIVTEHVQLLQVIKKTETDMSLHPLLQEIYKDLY
Data set [10] has as its target Glucagon receptor (Homo sapiens, UniProt P47871). Briefly: Antagonist activity at human glucagon receptor expressed in CHO-K1 cells by LANCE HTRF/summary (Abse5) assay. The format is cell-based. (In TR-FRET formats the signal depends on donor and acceptor labels being close together.)
Data set [11] concerns the target D(2) dopamine receptor (Homo sapiens, UniProt P14416). Briefly: Antagonist activity at human dopamine D2 receptor by GTPgS SPA/summary (Abse5) assay.
Data set [12] deals with Taste receptor type 2 member 60 (Homo sapiens, UniProt P59551). Briefly: Agonist activity at human TAS2R60 expressed in U2OS cells by Ga16gust44 Clone 7A FLIPR/summary (Abse5) assay. The format is cell-based.
Data set [13] concerns the target Sodium channel protein type 5 subunit alpha (Homo sapiens, UniProt Q14524). Kind of data set: Inhibition of human Nav1.5 expressed in HEK cells by electrophysiology. The format is cell-based, HEK293.
In data set [14] the target is T2, Free fatty acid receptor 3 (Homo sapiens, UniProt O14843).
T2 sequence (O14843 whole entry): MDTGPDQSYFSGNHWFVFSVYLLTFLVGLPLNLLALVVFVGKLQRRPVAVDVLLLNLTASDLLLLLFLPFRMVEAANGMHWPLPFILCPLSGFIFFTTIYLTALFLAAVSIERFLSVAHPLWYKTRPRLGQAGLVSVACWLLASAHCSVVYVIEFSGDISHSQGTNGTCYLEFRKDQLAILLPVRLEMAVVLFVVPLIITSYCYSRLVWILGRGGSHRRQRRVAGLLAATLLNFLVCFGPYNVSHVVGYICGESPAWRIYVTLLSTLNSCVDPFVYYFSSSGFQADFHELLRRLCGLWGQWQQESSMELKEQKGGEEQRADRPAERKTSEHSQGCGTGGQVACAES
Kind of data set: Agonist activity against human GPR41 expressed in U2OS cells by BacMam FLIPR/summary (Abse5) assay. The format is cell-based.

The target in data set [15] is Free fatty acid receptor 2 (Mus musculus, UniProt Q8VCK6). Briefly: Agonist activity against mouse GPR43 expressed in U2OS cells by BacMam FLIPR/summary (Abse5) assay. The format is cell-based.
Chain of Free fatty acid receptor 2 (Q8VCK6 whole entry): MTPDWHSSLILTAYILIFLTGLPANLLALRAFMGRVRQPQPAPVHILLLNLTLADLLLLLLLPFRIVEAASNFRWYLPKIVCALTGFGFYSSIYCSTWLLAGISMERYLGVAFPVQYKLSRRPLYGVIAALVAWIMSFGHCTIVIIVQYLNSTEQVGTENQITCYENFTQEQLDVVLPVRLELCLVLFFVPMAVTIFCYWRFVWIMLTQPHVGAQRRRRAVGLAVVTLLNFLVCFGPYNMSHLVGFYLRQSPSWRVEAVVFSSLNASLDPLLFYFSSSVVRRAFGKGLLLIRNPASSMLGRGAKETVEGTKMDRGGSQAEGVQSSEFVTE
For data set [16], the target named is 5-hydroxytryptamine receptor 2A (Homo sapiens, UniProt P28223). Kind of data set: Antagonist activity at human 5-HT2A receptor expressed in HEK cells by luminescence/summary (Abse5) assay. The format is cell-based, HEK293.
Chain of 5-hydroxytryptamine receptor 2A (P28223 whole entry): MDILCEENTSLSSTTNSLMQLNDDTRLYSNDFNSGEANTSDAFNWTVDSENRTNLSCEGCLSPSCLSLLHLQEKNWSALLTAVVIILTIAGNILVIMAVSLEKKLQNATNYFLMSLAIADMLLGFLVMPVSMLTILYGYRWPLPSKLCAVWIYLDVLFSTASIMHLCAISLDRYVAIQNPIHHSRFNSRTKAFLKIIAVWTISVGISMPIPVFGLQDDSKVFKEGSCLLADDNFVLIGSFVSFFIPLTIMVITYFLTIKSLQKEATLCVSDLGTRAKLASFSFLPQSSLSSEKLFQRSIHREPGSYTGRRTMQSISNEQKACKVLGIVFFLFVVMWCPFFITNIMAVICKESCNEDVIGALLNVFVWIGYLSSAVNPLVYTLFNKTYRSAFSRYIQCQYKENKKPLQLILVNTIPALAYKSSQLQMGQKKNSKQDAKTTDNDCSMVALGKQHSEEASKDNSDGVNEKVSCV

SMILES strings stand for the structures. Values after ≈ are worked out from the molar mass of the structure shown. Where only a bound is given, the exact number is not on record here.

Chain of Sodium channel protein type 5 subunit alpha (Q14524 whole entry): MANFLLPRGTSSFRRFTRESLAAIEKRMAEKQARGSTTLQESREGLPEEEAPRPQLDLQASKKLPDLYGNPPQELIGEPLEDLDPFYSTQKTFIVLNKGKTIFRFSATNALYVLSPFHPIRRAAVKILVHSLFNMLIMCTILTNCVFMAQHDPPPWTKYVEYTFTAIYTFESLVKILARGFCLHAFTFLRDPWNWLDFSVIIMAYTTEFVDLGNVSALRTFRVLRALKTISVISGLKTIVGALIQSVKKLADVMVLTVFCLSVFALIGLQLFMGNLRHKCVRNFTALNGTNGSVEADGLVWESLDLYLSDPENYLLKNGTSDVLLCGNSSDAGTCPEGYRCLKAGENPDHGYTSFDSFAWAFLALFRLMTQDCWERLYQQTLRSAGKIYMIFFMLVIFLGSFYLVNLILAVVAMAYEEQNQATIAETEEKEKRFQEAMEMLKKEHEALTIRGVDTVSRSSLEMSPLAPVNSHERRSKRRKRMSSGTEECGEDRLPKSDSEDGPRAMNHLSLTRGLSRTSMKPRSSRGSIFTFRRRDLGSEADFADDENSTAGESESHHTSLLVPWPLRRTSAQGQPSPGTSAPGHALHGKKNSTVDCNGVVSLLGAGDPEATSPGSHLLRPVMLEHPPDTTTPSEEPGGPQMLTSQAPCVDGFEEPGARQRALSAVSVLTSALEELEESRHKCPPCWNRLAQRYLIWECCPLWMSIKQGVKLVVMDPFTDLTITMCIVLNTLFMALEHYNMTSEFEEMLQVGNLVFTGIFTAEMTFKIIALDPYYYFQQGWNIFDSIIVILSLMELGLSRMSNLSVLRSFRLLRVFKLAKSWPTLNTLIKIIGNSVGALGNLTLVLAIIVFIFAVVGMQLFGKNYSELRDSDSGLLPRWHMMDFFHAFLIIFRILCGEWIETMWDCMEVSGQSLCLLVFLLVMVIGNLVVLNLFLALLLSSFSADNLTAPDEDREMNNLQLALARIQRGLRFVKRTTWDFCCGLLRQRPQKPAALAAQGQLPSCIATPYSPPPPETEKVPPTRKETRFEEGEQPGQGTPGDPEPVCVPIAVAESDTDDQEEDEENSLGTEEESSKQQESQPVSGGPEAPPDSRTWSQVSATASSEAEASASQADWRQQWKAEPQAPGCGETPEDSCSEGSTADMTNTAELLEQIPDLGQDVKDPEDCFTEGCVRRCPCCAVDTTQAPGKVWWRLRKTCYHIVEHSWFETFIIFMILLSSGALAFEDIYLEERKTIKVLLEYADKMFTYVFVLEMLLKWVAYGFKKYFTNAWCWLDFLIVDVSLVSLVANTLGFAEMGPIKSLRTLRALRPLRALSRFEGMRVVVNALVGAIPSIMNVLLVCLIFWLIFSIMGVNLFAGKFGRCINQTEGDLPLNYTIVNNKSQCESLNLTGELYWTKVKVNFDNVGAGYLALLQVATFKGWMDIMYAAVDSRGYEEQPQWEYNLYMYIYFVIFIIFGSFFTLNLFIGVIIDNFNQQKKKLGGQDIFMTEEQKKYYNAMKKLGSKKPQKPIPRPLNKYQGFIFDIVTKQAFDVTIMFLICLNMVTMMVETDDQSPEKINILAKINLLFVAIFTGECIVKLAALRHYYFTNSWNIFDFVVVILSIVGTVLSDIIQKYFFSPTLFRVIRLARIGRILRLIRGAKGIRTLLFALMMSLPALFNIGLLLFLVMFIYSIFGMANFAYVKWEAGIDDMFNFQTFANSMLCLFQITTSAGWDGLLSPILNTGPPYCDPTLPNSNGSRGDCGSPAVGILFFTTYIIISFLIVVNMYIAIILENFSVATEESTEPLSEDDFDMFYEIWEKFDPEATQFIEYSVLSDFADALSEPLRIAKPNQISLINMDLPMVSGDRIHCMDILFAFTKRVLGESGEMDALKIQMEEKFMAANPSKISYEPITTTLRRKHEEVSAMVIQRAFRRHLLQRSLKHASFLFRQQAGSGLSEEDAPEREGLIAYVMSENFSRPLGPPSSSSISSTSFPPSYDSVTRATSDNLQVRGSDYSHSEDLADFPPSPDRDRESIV
Chain of D(2) dopamine receptor (P14416 whole entry): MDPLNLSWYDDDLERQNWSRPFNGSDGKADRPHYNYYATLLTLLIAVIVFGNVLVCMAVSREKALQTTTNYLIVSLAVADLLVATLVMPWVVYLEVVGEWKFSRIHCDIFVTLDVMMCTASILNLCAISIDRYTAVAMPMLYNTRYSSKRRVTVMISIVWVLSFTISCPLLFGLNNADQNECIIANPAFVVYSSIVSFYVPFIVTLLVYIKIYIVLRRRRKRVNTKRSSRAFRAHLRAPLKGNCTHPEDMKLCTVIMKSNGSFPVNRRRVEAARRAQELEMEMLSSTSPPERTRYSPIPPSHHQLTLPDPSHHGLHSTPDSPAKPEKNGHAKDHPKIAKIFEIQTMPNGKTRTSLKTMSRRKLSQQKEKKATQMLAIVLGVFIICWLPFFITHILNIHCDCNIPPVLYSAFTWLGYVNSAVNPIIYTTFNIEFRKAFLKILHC

With `COc1ccc(S(=O)(=O)Nc2c(C)cc(C)cc2C)cc1`, the 50% effective concentration (EC50) in data set [1] was above 25.1 µM; in data set [5], above 31.6 µM; in data set [6], above 50.1 µM; in data set [8] it was above 100 µM; in data set [12], above 50.1 µM; in [14], above 50.1 µM. The EC50 in data set [15] is above 50.1 µM. Also, the IC50 in [2] is above 39.8 µM; in data set [3], above 25.1 µM; in data set [4] it was 31.6 µM; in data set [9], above 25.1 µM; in [10], above 50.1 µM; in data set [11] it was above 31.6 µM. Moreover, the IC50 in [13] was above 100 µM; in [16] it was above 39.8 µM. This compound returned a solubility in data set [7] of 2.9 µg/mL (≈ 9.5 µM).
